Assay results: ChEMBL document CHEMBL6120986, “In silico inspired design of urea noscapine congeners as anticancer agents: Chemical synthesis and experimental evaluation using breast cancer cells and a xenograft mouse model” (Eur J Med Chem, 2025)
The source made the active and inactive calls. No cut-off for these calls is given here.

Assays:
[1] = Toxicity in female BALB/c athymic mouse assessed as WBC count at 150 mg/kg/day, po (reference value: 4.50 +/- 2.20 10^3/uL); type: organism-based; conditions: in vivo
[2] = Toxicity in female BALB/c athymic mouse assessed as mean corpuscular hemoglobin concentration at 150 mg/kg/day, po (reference value: 35.86 +/- 0.24 g/dl); type: organism-based; conditions: in vivo
MDA-MB-231 [3] = experiment: Inhibition of colony formation in human MDA-MB-231 cells incubated for 24 hrs by crystal violet staining based colony formation assay; type: functional, cell-based; conditions: dose 1-20 µM
[4] = Toxicity in BALB/c athymic mouse assessed as effect on alveoli morphology at 150 mg/kg mg/kg, po by Hematoxylin and eosin staining based analysis; type: organism-based; conditions: in vivo
[5] = Toxicity in female BALB/c athymic mouse assessed as bilirubin direct level at 150 mg/kg/day, po (reference value: 0.298 +/- 0.07 mg/dl); type: organism-based; conditions: in vivo
Mitochondrial membrane [6] = experiment: Induction of mitochondrial membrane potential loss in human MDA-MB-231 cells assessed as increase in blue fluorescence incubated for 48 hrs by […] staining based fluorescence microscopic analysis; type: cell membranes
[7] = Toxicity in female BALB/c athymic mouse assessed as total protein level at 150 mg/kg/day, po (reference value: 6.88 +/- 0.15 g/dl); type: organism-based; conditions: in vivo
MDA-MB-231 [8] = experiment: Induction of apoptosis in human MDA-MB-231 cells assessed as late apoptotic cells at 6.56 uM incubated for 72 hrs by Annexin/FITC based FACS analysis (reference value: 3%); type: functional
MDA-MB-231 [9] = experiment: Induction of intracellular ROS generation in human MDA-MB-231 cells assessed as increase in fluorescence intensity at 6.56 uM incubated for 48 hrs by H2DCFDA fluorescence assay; type: functional, cell-based
Capra hircus = species on record: Capra hircus; experiment: Binding affinity to goat brain tubulin assessed as tryptophan fluorescence change incubated for 45 mins by tryptophan quenching assay; conditions: dose 50-200 µM
[10] = Toxicity in female BALB/c athymic mouse assessed as ALT level at 150 mg/kg/day, po (reference value: 29.79 +/- 3.15 U/L); type: organism-based; conditions: in vivo
MDA-MB-231 [11] = experiment: Induction of apoptosis in human MDA-MB-231 cells assessed as formation of apoptotic bodies at 6.65 uM (IC50) measured after 72 hrs by fluorescence microscopic analysis; type: functional, cell-based
[12] = Toxicity in female BALB/c athymic mouse assessed as monocyte count at 150 mg/kg/day, po (reference value: 0.39 +/- 0.03 %); type: organism-based; conditions: in vivo
[13] = Toxicity in female BALB/c athymic mouse assessed as BUN level at 150 mg/kg/day, po (reference value: 10.19 +/- 2.68 mg/dl); type: organism-based; conditions: in vivo
[14] = Toxicity in BALB/c athymic mouse assessed as effect on cerebral cortex morphology at 150 mg/kg mg/kg, po by Hematoxylin and eosin staining based analysis; type: organism-based; conditions: in vivo
[15] = Toxicity in female BALB/c athymic mouse assessed as hematocrit at 150 mg/kg/day, po (reference value: 41.34 +/- 0.30 %); type: organism-based; conditions: in vivo
[16] = Toxicity in female BALB/c athymic mouse assessed as sodium level at 150 mg/kg/day, po (reference value: 144.51 +/- 0.85 mEq/L); type: organism-based; conditions: in vivo
MDA-MB-231 [17] = experiment: Induction of apoptosis in human MDA-MB-231 cells assessed as membrane blebbing at 6.65 uM (IC50) measured after 72 hrs by fluorescence microscopic analysis; type: functional, cell-based
[18] = Toxicity in female BALB/c athymic mouse assessed as creatinine level at 150 mg/kg/day, po (reference value: 0.690 +/- 0.05 mg/dl); type: organism-based; conditions: in vivo
[19] = Toxicity in female BALB/c athymic mouse assessed as hemoglobin concentration at 150 mg/kg/day, po (reference value: 16.59 +/- 0.60 g/dl); type: organism-based; conditions: in vivo
MDA-MB-231 [20] = experiment: Induction of apoptosis in human MDA-MB-231 cells assessed as early apoptotic cells at 6.56 uM incubated for 72 hrs by Annexin/FITC based FACS analysis (reference value: 2%); type: functional
Mitochondrial membrane [21] = experiment: Induction of mitochondrial membrane potential loss in human MDA-MB-231 cells assessed as decrease in red fluorescence incubated for 48 hrs by JC-1 staining based fluorescence microscopic analysis; type: cell membranes
[22] = Toxicity in BALB/c athymic mouse assessed as effect on hepatic lobules morphology at 150 mg/kg, po by Hematoxylin and eosin staining based analysis; type: organism-based; conditions: in vivo
[23] = Toxicity in BALB/c athymic mouse assessed as effect on proximal tubules morphology at 150 mg/kg, po by Hematoxylin and eosin staining based analysis; type: organism-based; conditions: in vivo
[24] = Toxicity in female BALB/c athymic mouse assessed as glucose level at 150 mg/kg/day, po (reference value: 98.47 +/- 3.29 mg/dl); type: organism-based; conditions: in vivo
MDA-MB-231 [25] = experiment: Induction of cell cycle arrest in human MDA-MB-231 cells assessed as increase in accumulation of cells at G2/M phase at 6.65 uM incubated for 72 hrs by PI staining based FACS analysis relative to control; type: functional
[26] = Toxicity in female BALB/c athymic mouse assessed as ALK PHOS level at 150 mg/kg/day, po (reference value: 78.59 +/- 5.85 U/L); type: organism-based; conditions: in vivo
MDA-MB-231 [27] = experiment: Induction of apoptosis in human MDA-MB-231 cells assessed as increase in fragmented nuclei at 6.65 uM (IC50) measured after 72 hrs by fluorescence microscopic analysis; type: functional, cell-based
MDA-MB-231 [28] = experiment: Induction of cell cycle arrest in human MDA-MB-231 cells assessed as accumulation of hypodiploid cells at sub-G1 phase at 6.65 uM IC50 incubated for 72 hrs by FACS analysis; type: functional, cell-based
MCF7 = experiment: Antitumor activity against human MCF7 cells xenografted in BALB/c athymic mouse assessed as reduction in tumor volume at 150 mg/kg, po administrated for 30 days (reference value: 1.63 cm^3); type: functional; conditions: time 30 day
[29] = Toxicity in female BALB/c athymic mouse assessed as albumin level at 150 mg/kg/day, po (reference value: 6.31 +/- 0.41 g/dl); type: organism-based; conditions: in vivo
[30] = Toxicity in female BALB/c athymic mouse assessed as RBC count at 150 mg/kg/day, po (reference value: 5.84 +/- 0.30 10^6/uL); type: organism-based; conditions: in vivo
[31] = Toxicity in female BALB/c athymic mouse assessed as Chlorine level at 150 mg/kg/day, po (reference value: 105.63 +/- 4.46 mEq/L); type: organism-based; conditions: in vivo
[32] = Binding affinity in goat brain tubulin assessed as equilibrium dissociation constant incubated for 45 mins by fluorescence titration method; set-up: species or system Capra hircus
[33] = Toxicity in BALB/c athymic mouse assessed as effect on glomeruli morphology at 150 mg/kg, po by Hematoxylin and eosin staining based analysis; type: organism-based; conditions: in vivo
MDA-MB-231 [34] = experiment: Induction of apoptosis in human MDA-MB-231 cells assessed as increase in TUNEL positive nuclei at 6.56 uM by TUNEL assay relative to control; type: functional, cell-based
[35] = Cytotoxicty against HEK cells incubated for 72 hrs by SRB assay; type: toxicity, cell-based; conditions: human

For COc1ccc2c(c1OC)C(=O)O[C@@H]2[C@H]1c2c(c(NC(=O)Nc3ccc(Cl)cc3Cl)c3c(c2OC)OCO3)CCN1C, the Activity [1] was 4.59 10^3 /uL, the Activity [2] was 34.74 g/dL and the inhibition (MDA-MB-231 [3]) was “Dose-dependent-effect”. For the same molecule, the Activity [4] was “Non-toxic”, the Activity [5] was 0.32 mg/dL and the Activity (Mitochondrial membrane [6]) was “Active”. For the same molecule, the Activity [7] was 6.56 g/dL, the Activity (MDA-MB-231 [8]) was 68% and the Activity (MDA-MB-231 [9]) was “Active”. The Activity (Capra hircus) was “Dose-dependent-effect”, the Activity [10] was 28.62 U/L and the Activity (MDA-MB-231 [11]) was “Active”. The Activity [12] was 0.48%, the Activity [13] was 12.11 mg/dL and the Activity [14] was “Non-toxic”. For the same molecule, the Activity [15] was 39.29%, the Activity [16] was 144.4 mEq/L and the Activity (MDA-MB-231 [17]) was “Active”. For the same molecule, the Activity [18] was 0.702 mg/dL, the Activity [19] was 14.6 g/dL and the Activity (MDA-MB-231 [20]) was 22%. For the same molecule, the Activity (Mitochondrial membrane [21]) was “Active”, the Activity [22] was “Non-toxic” and the Activity [23] was “Non-toxic”. The Activity [24] was 98.37 mg/dL, the Activity (MDA-MB-231 [25]) was “Active” and the Activity [26] was 78.45 U/L. For the same molecule, the Activity (MDA-MB-231 [27]) was “Active”, the Activity (MDA-MB-231 [28]) was “Active” and the Activity (MCF7) was 0.34 cm3. For the same molecule, the Activity [29] was 6.19 g/dL, the Activity [30] was 6.29 10^6 /uL and the Activity [31] was 106.71 mEq/L. The Kd [32] was 42 µM, the Activity [33] was “Non-toxic” and the Activity (MDA-MB-231 [34]) was “Active”. The IC50 at 72 h [35] was 338 µM.
